Measurements reported in patent US8637674B2, “Pyrazole derivatives, preparation method thereof, and composition for prevention and treatment of osteoporosis containing same” (EWHA University-Industry Collaboration Foundation, priority 2009, dated 2014).

Target: reactive oxygen species generated in kidney membrane (NADPH oxidase)
Experiment: Inhibition of reactive oxygen species generation in kidney membrane (lucigenin-based assay)
Format: biochemical, rat (Rattus norvegicus)
Details: 37° C. for 10 minutes, luminescence, compounds at 40, 10, 2.5, 0.625, 0 μM
Method: A kidney was isolated from a rat (Rattus norvegicus) and washed with phosphate buffered saline (PBS). The tissue was soaked in 20 mL of PBS buffer containing a protease inhibitor (Aprotinin 1 μg/mL-USB 11388, Leupeptin 1 μg/mL-USB-18413), finely disrupted using a mixer, and then transferred to a 50 mL conical tube (SPL 50050), followed by centrifugation at 10000 g for 10 minutes (MF-600 plus, Hanil) to sediment the undisrupted tissue. The supernatant was separated and collected in a fresh tube. The tube was placed in ice and subjected to sonication about 4 times each cycle for 30 seconds until the supernatant became clear (Branson Digital Sonifier, Model CE Converter 102C). The supernatant was transferred to a high-speed centrifugation tube (Beckman 331372) and then centrifuged at 100000 g for 1 hour (Optima™ L-90 K Preparative Ultracentrifuge, SW41Ti rotor, Beckman). After the supernatant was discarded, the remaining pellet was washed once with cold PBS and dissolved in 500 μL of cold PBS containing a protease inhibitor to obtain a murine kidney membrane.
Reactive oxygen species generated in the thus-obtained kidney membrane was analyzed by a lucigenin-based assay.
Specifically, each of the compounds synthesized in Examples of the present invention (40 μM, 10 μM, 2.5 μM, 0.625 μM, and 0 μM) was placed in a luminescence assay microplate, and the isolated kidney membrane and lucigenin were sequentially added thereto, followed by incubation at 37° C. for 10 minutes. Then, the intensity of luminescence was measured in a luminometer (MicroLumatPlus LB96V Microplate Luminometer, Berthold) to assay the generation of reactive oxygen species in the murine kidney membrane, followed by calculating an EC50 value of the inventive compounds.

| EC50 | SMILES |
| --- | --- |
| 500 nM | Oc1cc(C=Cc2ccccc2)nn1-c1ccccn1 [Compound 9a, 1-(pyridin-2-yl)-3-styryl-1H-pyrazol-5-ol] |
| 500 nM | COc1ccc(C=Cc2cc(O)n(-c3ccccn3)n2)cc1 [Compound 9b, 3-(4-methoxystyryl)-1-(pyridin-2-yl)-1H-pyrazol-5-ol] |
| 600 nM | COc1ccc(C=Cc2cc(O)n(-c3ccccn3)n2)cc1OC [Compound 9c, 3-(3,4-dimethoxystyryl)-1-(pyridin-2-yl)-1H-pyrazol-5-ol] |
| 1700 nM | Oc1cc(C=Cc2ccc(Cl)c(Cl)c2)nn1-c1ccccn1 [Compound 9d, 3-(3,4-dichlorostyryl)-1-(pyridin-2-yl)-1H-pyrazol-5-ol] |
| 500 nM | Oc1cc(C=Cc2ccc(C(F)(F)F)cc2)nn1-c1ccccn1 [Compound 9f, 3-(4-trifluoromethylstyryl)-1-(pyridin-2-yl)-1H-pyrazol-5-ol] |
| 900 nM | CC(C)(C)[Si](C)(C)Oc1ccc(/C=C/c2cc(O)n(-c3ccccn3)n2)cc1 [Compound 9g] |
| 1500 nM | Oc1ccc(C=Cc2cc(O)n(-c3ccccn3)n2)cc1 [Compound 9k, 3-(4-hydroxystyryl)-1-(pyridin-2-yl)-1H-pyrazol-5-ol] |

Continued, compound first:

| SMILES | EC50 |
| --- | --- |
| Oc1cc(CCc2ccccc2)nn1-c1ccccn1 [Compound 3d, 3-phenethyl-1-(pyridin-2-yl)-1H-pyrazol-5-ol] | 10000 nM |
| Oc1cc(Cc2ccc(Cl)cc2)nn1-c1ccccn1 [Compound 3e, 3-(p-chlorobenzyl)-1-(pyridin-2-yl)-1H-pyrazol-5-ol] | 1500 nM |
| Oc1cc(COc2ccccc2)nn1-c1ccccn1 [Compound 6a, 3-(phenoxymethyl)-1-(pyridin-2-yl)-1H-pyrazol-5-ol] | 7500 nM |
| Oc1cc(COc2ccc3ccccc3c2)nn1-c1ccccn1 [Compound 6b, 3-((naphthalen-3-yloxy)methyl)-1-(pyridin-2-yl)-1H-pyrazol-5-ol] | 400 nM |
| Oc1cc(COc2ccc(Cl)cc2Cl)nn1-c1ccccn1 [Compound 6d, 3-((2,4-dichlorophenoxy)methyl)-1-(pyridin-2-yl)-1H-pyrazol-5-ol] | 1800 nM |
